The target in one assay is T1, KRAS (WT) (Homo sapiens, UniProt P01116).
T1 construct: Biotinylated KRAS protein amino acids 1-169 (produced at Erasca); made in house
Nature of the assay: In-vitro RAS-RAF binding assay (RRB), HTRF/FRET. The assay is classed as biochemical. As to conditions: read-out: Inhibition of RAS-RAF Binding (in-vitro) KRAS (WT) IC50. As to the method: (§1) Biotinylated KRAS protein amino acids 1-169 (produced at […]) is labeled with streptavidin-terbium (lanthanide cryptate donor fluorophore) in assay buffer (50 mM HEPES, pH 7.5, 100 mM NaCl, 1 mM MgCl2, 1 mM DTT) at a final concentration of 30 nM. In a separate reaction mixture, 30 nM cRAF (RBD) (Abcam, Cambridge MA) is labeled with anti-GST d2 (acceptor fluorophore). Labeling reactions are incubated for 1 hour at room temperature. […] Following the compound incubation, SOS1 catalytic domain (produced at […]) and GTPgS are added to the reaction to initiate nucleotide exchange (60 minutes exchange reaction). Once in the GTP state KRAS will bind to cRAF. No binding will occur if KRAS remains in the GDP state. Compounds may block nucleotide exchange or may create a steric obstruction to cRAF-KRAS interaction by binding to the RAS effector site. […] A portion of this mixture is transferred to a white 384-well plate (20 uL per well in duplicate) and read on an HTRF compatible plate reader (ClarioSTAR). Fluorescent resonance energy transfer (FRET) is measured at equilibrium. FRET signal will be high if KRAS-cRAF binding occurs. FRET signal will be low if KRAS-cRAF binding is inhibited by the test compound. Table 2 represents the average of multiple runs of each compound.

In another assay the target is KRAS G12D (Homo sapiens, UniProt P01116, G12D). Nature of the assay: In-vitro RAS-RAF binding assay (RRB), HTRF/FRET. The assay is classed as biochemical. Also on record: Biotinylated KRAS protein amino acids 1-169 (produced at Erasca); made in house. The settings on record: read-out: Inhibition of RAS-RAF Binding (in-vitro) KRAS (G12D) IC50. As to the method: as §1
[1] abbreviates: Table 2, average of multiple runs of each compound.

Like-named read-outs stand apart in the source and are kept apart here.

T1 sequence (P01116 1-169 isoform P01116-2): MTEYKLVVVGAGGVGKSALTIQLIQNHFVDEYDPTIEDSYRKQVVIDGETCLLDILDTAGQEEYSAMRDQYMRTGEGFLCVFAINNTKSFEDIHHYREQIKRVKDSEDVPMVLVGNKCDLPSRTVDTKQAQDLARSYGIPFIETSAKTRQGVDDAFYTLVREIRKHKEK
Sequence of KRAS G12D (P01116 1-169 isoform P01116-2 G12D): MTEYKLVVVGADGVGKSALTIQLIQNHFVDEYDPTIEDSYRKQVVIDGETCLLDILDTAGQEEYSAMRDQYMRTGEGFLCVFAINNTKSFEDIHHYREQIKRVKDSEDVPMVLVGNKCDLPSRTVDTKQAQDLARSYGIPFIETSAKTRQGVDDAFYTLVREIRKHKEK

Consider `C#Cc1c(F)ccc2cc(O)cc(-c3ncc4c(N5CC6CCC(C5)N6)nc(OC[C@@H]5CCCN5CCCOCCC(=O)N[C@H](C(=O)N5C[C@H](O)C[C@H]5C(=O)N[C@@H](C)c5ccc(-c6c(C)ccc(C)c6C)cc5)C(C)(C)C)nc4c3F)c12` [Example 56, (2S,4R)-1-((2S)-2-(3-(3-((2S)-2-(((4-(3,8-diazabicyclo[3.2.1]octan-3-yl)-7-(8-ethynyl-7-fluoro-3-hydroxynaphthalen-1-yl)-8-fluoropyrido[4,3-d]pyrimidin-2-yl)oxy)methyl)pyrrolidin-1-yl)propoxy)propanamido)-3,3-dimethylbutanoyl)-4-hydroxy-N-((S)-1-(2′,3′,6′-trimethyl-[1,1′-biphenyl]-4-yl)ethyl)pyrrolidine-2-carboxamide], for which the 50% inhibitory concentration (IC50) was determined as 65.7 nM at KRAS (WT) (setting [1]) and 9.36 nM on KRAS G12D (setting [1]).

Regarding `Cc1cc(N)nc(-c2c(Cl)cc3c(N4CC5CCC(C4)N5)nc(OC[C@@H]4CCCN4CCCOCCC(=O)N[C@H](C(=O)N4C[C@H](O)C[C@H]4C(=O)N[C@@H](C)c4ccc(-c5scnc5C)cc4)C(C)(C)C)nc3c2F)c1C(F)(F)F` [Example 1, (2S,4R)-1-[(2S)-2-[3-[3-[(2S)-2-[[7-[6-amino-4-methyl-3-(trifluoromethyl)-2-pyridyl]-6-chloro-4-(3,8-diazabicyclo[3.2.1]octan-3-yl)-8-fluoro-quinazolin-2-yl]oxymethyl]pyrrolidin-1-yl]propoxy]propanoylamino]-3,3-dimethyl-butanoyl]-4-hydroxy-N-[(1S)-1-[4-(4-methylthiazol-5-yl)phenyl]ethyl]pyrrolidine-2-carboxamide], the IC50 at KRAS (WT) (Table 1) turned out to be 799 nM; on KRAS (WT) (setting [1]), 799 nM; at KRAS G12D (Table 1), 15 nM; on KRAS G12D (setting [1]), 15.4 nM.

In the case of `C#Cc1c(F)ccc2cc(O)cc(-c3ncc4c(N5CC6CCC(C5)N6)nc(OC[C@@H]5CCCN5CCCOCCC(=O)N[C@H](C(=O)N5C[C@H](O)C[C@H]5C(=O)N[C@@H](CO)c5ccc(-c6scnc6C)cc5)C(C)(C)C)nc4c3F)c12` [Example 29, (2S,4R)-1-((2S)-2-(3-(3-((2S)-2-(((4-(3,8-diazabicyclo[3.2.1]octan-3-yl)-7-(8-ethynyl-7-fluoro-3-hydroxynaphthalen-1-yl)-8-fluoropyrido[4,3-d]pyrimidin-2-yl)oxy)methyl)pyrrolidin-1-yl)propoxy)propanamido)-3,3-dimethylbutanoyl)-4-hydroxy-N—((R)-2-hydroxy-1-(4-(4-methylthiazol-5-yl)phenyl)ethyl)pyrrolidine-2-carboxamide], the half-inhibitory concentration (IC50) at KRAS (WT) (setting [1]) is 27.9 nM; on KRAS G12D (setting [1]), 9.31 nM.

Turning to `C#Cc1c(F)ccc2cc(O)cc(-c3ncc4c(N5CC6CCC(C5)N6)nc(OC[C@@H]5CCCN5CCCOCCC(=O)N[C@H](C(=O)N5C[C@H](O)C[C@H]5C(=O)N[C@@H](C)c5ccc(-c6c(F)c(F)cc(F)c6F)cc5)C(C)(C)C)nc4c3F)c12` [Example 54, (2S,4R)-1-((2S)-2-(3-(3-((2S)-2-(((4-(3,8-diazabicyclo[3.2.1]octan-3-yl)-7-(8-ethynyl-7-fluoro-3-hydroxynaphthalen-1-yl)-8-fluoropyrido[4,3-d]pyrimidin-2-yl)oxy)methyl)pyrrolidin-1-yl)propoxy)propanamido)-3,3-dimethylbutanoyl)-4-hydroxy-N-((S)-1-(2′,3′,5′,6′-tetrafluoro-[1,1′-biphenyl]-4-yl)ethyl)pyrrolidine-2-carboxamide], the half-inhibitory concentration (IC50) worked out at 52.9 nM on KRAS (WT) (setting [1]) and 9.65 nM on KRAS G12D (setting [1]).

As for `Cc1ncsc1-c1ccc([C@H](C)NC(=O)[C@@H]2C[C@@H](O)CN2C(=O)[C@@H](NC(=O)CCCCN2CC[C@H]2COc2nc(N3CC4CCC(C3)N4)c3cc(Cl)c(-c4ccc(F)c5sc(N)c(C#N)c45)c(F)c3n2)C(C)(C)C)cc1` [Example 23, (2S,4R)-1-((2S)-2-(5-((2S)-2-(((7-(2-amino-3-cyano-7-fluorobenzo[b]thiophen-4-yl)-4-(3,8-diazabicyclo[3.2.1]octan-3-yl)-6-chloro-8-fluoroquinazolin-2-yl)oxy)methyl)azetidin-1-yl)pentanamido)-3,3-dimethylbutanoyl)-4-hydroxy-N—((S)-1-(4-(4-methylthiazol-5-yl)phenyl)ethyl)pyrrolidine-2-carboxamide], the concentration for half-maximal inhibition (IC50) at KRAS (WT) (setting [1]) is 65 nM; at KRAS G12D (setting [1]) it was 12.6 nM.

Consider `C#Cc1c(F)ccc2cc(O)cc(-c3ncc4c(N5CC6CCC(C5)N6)nc(OC[C@@H]5CCCN5CCCOCCC(=O)N[C@H](C(=O)N5C[C@H](O)C[C@H]5C(=O)N[C@@H](CO)c5ccc(-c6c(F)cccc6F)cc5)C(C)(C)C)nc4c3F)c12` [Example 32, (2S,4R)-1-((2S)-2-(3-(3-((2S)-2-(((4-(3,8-diazabicyclo[3.2.1]octan-3-yl)-7-(8-ethynyl-7-fluoro-3-hydroxynaphthalen-1-yl)-8-fluoropyrido[4,3-d]pyrimidin-2-yl)oxy)methyl)pyrrolidin-1-yl)propoxy)propanamido)-3,3-dimethylbutanoyl)-N—((R)-1-(2′,6′-difluoro-[1,1′-biphenyl]-4-yl)-2-hydroxyethyl)-4-hydroxypyrrolidine-2-carboxamide], for which the IC50 was 30.3 nM at KRAS (WT) (setting [1]) and 8.23 nM on KRAS G12D (setting [1]).

Regarding `Cc1cc(N)nc(-c2c(Cl)cc3c(N4CC5CCC(C4)N5)nc(OC[C@@H]4CCCN4CCCOCCC(=O)N[C@H](C(=O)N4C[C@H](O)C[C@H]4C(=O)NCc4ccc(-c5scnc5C)cc4)C(C)(C)C)nc3c2F)c1C(F)(F)F` [Example 2, (2S,4R)-1-[(2S)-2-[3-[3-[(2S)-2-[[7-[6-amino-4-methyl-3-(trifluoromethyl)-2-pyridyl]-6-chloro-4-(3,8-diazabicyclo[3.2.1]octan-3-yl)-8-fluoro-quinazolin-2-yl]oxymethyl]pyrrolidin-1-yl]propoxy]propanoylamino]-3,3-dimethyl-butanoyl]-4-hydroxy-N-[[4-(4-methylthiazol-5-yl)phenyl]methyl]pyrrolidine-2-carboxamide], the IC50 on KRAS (WT) (Table 1) came to 4250 nM; on KRAS (WT) (setting [1]) it was 4250 nM; at KRAS G12D (Table 1), 17 nM; on KRAS G12D (setting [1]) it was 17.2 nM.

As for `C#Cc1c(F)ccc2cc(O)cc(-c3ncc4c(N5CC6CCC(C5)N6)nc(OC[C@@H]5CCCN5CCCC5CCC(=O)N5[C@H](C(=O)N5C[C@H](O)C[C@H]5C(=O)N[C@@H](C)c5ccc(-c6scnc6C)cc5)C(C)(C)C)nc4c3F)c12` (stereo partly drawn) [Example 10, (2S,4R)-1-((2S)-2-(2-(3-((2S)-2-(((4-(3,8-diazabicyclo[3.2.1]octan-3-yl)-7-(8-ethynyl-7-fluoro-3-hydroxynaphthalen-1-yl)-8-fluoropyrido[4,3-d]pyrimidin-2-yl)oxy)methyl)pyrrolidin-1-yl)propyl)-5-oxopyrrolidin-1-yl)-3,3-dimethylbutanoyl)-4-hydroxy-N—((S)-1-(4-(4-methylthiazol-5-yl)phenyl)ethyl)pyrrolidine-2-carboxamide], the IC50 on KRAS (WT) (setting [1]) was 134 nM; on KRAS G12D (setting [1]) it was 12.7 nM.

As for `C#Cc1c(F)ccc2cc(O)cc(-c3ncc4c(N5CC6CCC(C5)N6)nc(OCCN5CCC(F)(COc6cc([C@H](C(=O)N7C[C@H](O)C[C@H]7C(=O)N[C@@H](C)c7ccc(-c8c(F)cc(F)cc8F)cc7)C(C)C)on6)CC5)nc4c3F)c12` [Example 65, (2S,4R)-1-((2R)-2-(3-((1-(2-((4-(3,8-diazabicyclo[3.2.1]octan-3-yl)-7-(8-ethynyl-7-fluoro-3-hydroxynaphthalen-1-yl)-8-fluoropyrido[4,3-d]pyrimidin-2-yl)oxy)ethyl)-4-fluoropiperidin-4-yl)methoxy)isoxazol-5-yl)-3-methylbutanoyl)-4-hydroxy-N-((S)-1-(2′,4′,6′-trifluoro-[1,1′-biphenyl]-4-yl)ethyl)pyrrolidine-2-carboxamide], the IC50 was > 10000 nM at KRAS (WT) (setting [1]) and 11.1 nM on KRAS G12D (setting [1]).

As for `C#Cc1c(F)ccc2cc(O)cc(-c3ncc4c(N5CC6CCC(C5)N6)nc(OCCN5CCC(C)(COc6cc([C@H](C(=O)N7C[C@H](O)C[C@H]7C(=O)N[C@@H](C)c7ccc(-c8c(F)cccc8F)cc7)C(C)C)on6)CC5)nc4c3F)c12` [Example 61, (2S,4R)-1-((2R)-2-(3-((1-(2-((4-(3,8-diazabicyclo[3.2.1]octan-3-yl)-7-(8-ethynyl-7-fluoro-3-hydroxynaphthalen-1-yl)-8-fluoropyrido[4,3-d]pyrimidin-2-yl)oxy)ethyl)-4-methylpiperidin-4-yl)methoxy)isoxazol-5-yl)-3-methylbutanoyl)-N-((S)-1-(2′,6′-difluoro-[1,1′-biphenyl]-4-yl)ethyl)-4-hydroxypyrrolidine-2-carboxamide], the results for the 50% inhibitory concentration (IC50) on KRAS (WT) (setting [1]) and at KRAS G12D (setting [1]) were 1200 nM and 8.99 nM, respectively.

The values above are taken from US20240293558A1, “KRAS INHIBITOR CONJUGATES” (Erasca, Inc., priority 2021, published 2024).
